Source: patent US20240417410A1, “TRICYCLIC COMPOUNDS FOR THE TREATMENT OF CANCER” (Hoffmann-La Roche Inc., priority 2023, published 2024)

Tests used:
human hepatocytes = assay: Human hepatocyte stability assay; format: in vitro ADME; details: 1 μM compound, human hepatocytes 1×10^6 cells/mL
Protocol: The hepatocyte stability assay measures the rate of disappearance of a compound from incubations with cryopreserved suspension hepatocytes from human. Positive controls, including Midazolam, Raloxifene and Dextromethorphan, are included in every experiment. Incubations consist of 1 μM tested compound and suspension of human hepatocytes (1×10^6 cells/mL) in supplemented Williams' E Medium with 10% FBS and 0.5% Penicillin-streptomycin. The hepatocyte suspension was incubated with intermittent shaking 900 rpm at 37° C., in a 5% CO2 incubator. The reaction was stopped by adding methanol containing internal standard (2 μM Tolbutamide) at 2, 10, 20, 40, 60 and 120 minutes after compound addition, depletion of the parent compound was monitored by LC-MS/MS analysis.

DUSP6 = assay: SHP-77 xenograft single-dose PK/PD study, tumor DUSP6 levels; format: in vivo, mouse; details: single oral dose of 30 mg/kg
Description: The purpose of the study was to assess the anti-tumor activity in difficult KRAS mutated xenograft tumor model using SHP-77 (small cell lung cancer, SCLC; ATCC CRL-2195) by examining the time-dependent effects on MAPK pathway modulation and tumor suppression post-administration of Example 24 and reference compound A122.
Female CB17-SCID mice at 6-8 weeks old from Vital River Co., LTD. were used for these studies. In order to generate subcutaneous xenograft tumors, each mouse was inoculated at the right flank with tumor cells in 100 μL of PBS and Matrigel matrix in the right hind flank with 1×10^7 cells. Mouse health was monitored daily, and caliper measurements began when tumors were palpable. Tumor volume measurements were determined utilizing the formula 0.5×L×W^2 in which L refers to length and W refers to width of each tumor. When tumors reached an average tumor volume of approximately 100-200 mm^3 for efficacy study and 300-500 mm^3 for single-dose PK/PD study, mice were randomized into treatment groups.
Mice were treated by oral gavage at 10 mg/kg with either vehicle consisting of DMSO: Solutol HS15: water=10:10:80 (% v/v/v) or compounds (Example 24, A122) in vehicle at indicated doses. For efficacy studies, animals were orally administered daily, tumor volumes and body weights were measured 3 times per week. Study day on efficacy plots indicates the day after which compound treatment was initiated. For single-dose PK/PD study, at the indicated time points after a single dose of Example 24 at the indicated dose levels, tumor samples were collected for PD analysis. RNA extraction and analysis of DUSP6 levels by in tumor tissue were performed as described in Example 134.

[1] = test system: panel of 119 human cancer cell lines with RAS mutations or amplifications; assay: Cell proliferation analysis, panel of 119 human cancer cell lines; format: cell-based; details: RAS addicted cell panels (n=119), read-out: median IC50
Protocol: The objective of this study was to evaluate the extent and degree to which Example 24 or A122 inhibits cell proliferation in a panel of 119 human cancer cell lines with RAS mutations or amplifications across various histological subtypes.
On Day-1, cells were plated in 384-well round-bottom ultra-low adhesion plates (cat. Corning 3830, with cell density adjusted according to Table 3. The assay plate was then centrifuged at 1000 rpm for 1 minute to ensure even distribution of cells. The plate was incubated at 37° C. in a 5% CO2 atmosphere (It is worth noting that for SW1271 cell plate, it needs to be incubated in an incubator without additional CO2).
On Day 0, Example 24 or A122 was added to each well using a Tecan HP D300E dispenser, with a 3-fold dilution across 9 doses. The final concentration of DMSO was normalized to 0.2%. The assay plate was then centrifuged at 1000 rpm for 1 minute and incubated for 7 days.
On Day 7, CellTiter-Glo (CTG) 3D reagent (Promega G9683) was dispensed into each well of a 384-well plate using a multi-drop dispenser (Thermo Scientific 66413). […]
For data analysis, the XL-fit software (Supplier: ID Business Solutions Ltd., Software version: XL fit 5.0) was utilized. The percentage of inhibition was calculated using the formula: Inhibition %=(Max-Sample value)/(Max-Min)×100. […]

hERG potassium channel = hERG potassium channel (Homo sapiens (Human), UniProt Q12809); assay: hERG potassium channel assay (manual patch clamp, CHO cells); format: cell-based; details: for IC50 / IC20: 34° C., manual patch, CHO cells; for IC20: human, CHO cells stably transfected with hERG channel
Sequence of hERG potassium channel (Q12809 whole entry): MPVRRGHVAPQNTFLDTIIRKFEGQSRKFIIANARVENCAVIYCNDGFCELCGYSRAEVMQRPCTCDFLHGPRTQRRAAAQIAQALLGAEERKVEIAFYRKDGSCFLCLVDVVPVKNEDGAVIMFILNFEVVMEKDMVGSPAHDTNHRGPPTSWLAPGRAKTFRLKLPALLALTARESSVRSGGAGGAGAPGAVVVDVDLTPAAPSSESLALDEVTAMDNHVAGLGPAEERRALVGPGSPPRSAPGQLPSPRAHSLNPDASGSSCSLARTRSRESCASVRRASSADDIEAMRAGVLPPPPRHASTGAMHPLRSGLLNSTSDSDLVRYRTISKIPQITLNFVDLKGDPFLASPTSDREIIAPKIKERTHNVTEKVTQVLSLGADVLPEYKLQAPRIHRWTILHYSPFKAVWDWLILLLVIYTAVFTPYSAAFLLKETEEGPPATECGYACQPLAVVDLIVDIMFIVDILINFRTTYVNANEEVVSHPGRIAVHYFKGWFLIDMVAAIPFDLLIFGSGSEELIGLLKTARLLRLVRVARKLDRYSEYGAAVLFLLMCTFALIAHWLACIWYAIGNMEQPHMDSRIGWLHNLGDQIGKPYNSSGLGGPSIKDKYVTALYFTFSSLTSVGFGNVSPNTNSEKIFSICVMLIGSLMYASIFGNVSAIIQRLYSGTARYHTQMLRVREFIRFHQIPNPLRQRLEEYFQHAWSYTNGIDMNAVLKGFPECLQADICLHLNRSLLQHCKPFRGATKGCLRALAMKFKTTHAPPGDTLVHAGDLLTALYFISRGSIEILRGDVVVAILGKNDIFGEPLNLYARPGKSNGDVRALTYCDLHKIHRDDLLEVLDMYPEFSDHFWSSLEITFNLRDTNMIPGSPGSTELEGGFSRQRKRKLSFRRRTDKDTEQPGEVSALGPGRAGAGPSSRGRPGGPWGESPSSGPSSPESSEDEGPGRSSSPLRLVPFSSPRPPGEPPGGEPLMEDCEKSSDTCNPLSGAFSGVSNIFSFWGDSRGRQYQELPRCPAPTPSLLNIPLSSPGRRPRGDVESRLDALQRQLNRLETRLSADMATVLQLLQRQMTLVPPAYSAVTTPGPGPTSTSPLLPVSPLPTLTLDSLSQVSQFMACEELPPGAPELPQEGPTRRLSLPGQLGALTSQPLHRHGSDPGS
Protocol: The purpose of the test was to screen compounds for the activity on hERG channels as a non-clinical cardiac safety evaluation.
Advanced hERG experiments were performed at near-physiological temperature (34° C.) by HEKA EPC10 manual patch system (heka elektronik, EPC10 amplifier). The CHO cells (B′SYS GmbH) stably transfected hERG channel were initially held at −80 mV, depolarized to voltages between −40 mV (100 ms) to 20 mV (500 ms) to activate the hERG outward currents, and then repolarized to −40 mV (500 ms) to record the hERG tail currents, with an interpulse interval of 15s. The recording environment included: Extracellular solution (in mM): 150 NaCl, 4 KCl, 1.2 CaCl2), 1 MgCl2 and 10 HEPES; pH adjusted to 7.2-7.4 with 5 M NaOH; Intracellular solution (in mM): 125 KCl, 10 NaCl, 5 EGTA, 10 HEPES, 0.1 Na2GTP and 5 MgATP; pH adjusted to 7.2 with 1 M KOH. Current inhibitions in the presence of more than 4 concentrations in quadruplicate were used to fit hERG IC50 by Graphpad prism V8.0.

## CO[C@@H](C)c1ncc(N2CCN(C)CC2)cc1-c1c2c3cc(cc4c3n1CCC4)-c1csc(n1)C[C@H](NC(=O)[C@H]1[C@H](C)[C@@H]1C)C(=O)N1CCC[C@H](N1)C(=O)OCC(C)(C)C2 (atropisomer, axis not shown; (M)) [Example 24, (1r,2R,3S)-N-[(7S,13S)-(20M)-20-[2-[(1S)-1-methoxyethyl]-5-(4-methylpiperazin-1-yl)-3-pyridyl]-17,17-dimethyl-8,14-dioxo-15-oxa-4-thia-9,21,30,31-tetrazahexacyclo[23.3.1.1^2,5.1^9,13.0^19,27.0^21,26]hentriaconta-1 (28),2,5 (31), 19,25 (29),26-hexaen-7-yl]-2,3-dimethyl-cyclopropanecarboxamide]
Human hepatocytes
  Hepatic clearance (Human): 3.4 mL/min/kg
DUSP6; 24 h
  tumor DUSP6 levels remaining: 3.9%
DUSP6; 48 hours
  tumor DUSP6 levels remaining: 31%
DUSP6; 72 hours
  tumor DUSP6 levels remaining: 73.7%
[1]
  IC50: 0.00095 µM
hERG potassium channel
  fold higher hERG IC20 compared to A122: 3 fold
  fold higher hERG IC20 compared to A252: 4 fold
  IC50: 63.7 µM
  IC20: 13.8 µM

## CCn1c(-c2cc(N3CCN(C)CC3)cnc2[C@H](C)OC)c2c3cc(ccc31)-c1csc(n1)C[C@H](NC(=O)[C@H]1C[C@@H]1C)C(=O)N1CCC[C@H](N1)C(=O)OCC(C)(C)O2 [Example A122, reference compound]
Human hepatocytes
  Hepatic clearance (Human): 9 mL/min/kg
DUSP6; 24 h
  tumor DUSP6 levels remaining: 4.3%
DUSP6; 48 hours
  tumor DUSP6 levels remaining: 67%
DUSP6; 72 hours
  tumor DUSP6 levels remaining: 126%
[1]
  IC50: 0.0019 µM
hERG potassium channel
  IC50: 16.9 µM
  IC20: 4.6 µM
